# Measurements reported in patent EP0120019B1, “PHARMACEUTICAL COMPOSITION HAVING A C[…]” (SCHERING AKTIENGESELLSCHAFT, priority 1982, dated 1983).
# What was measured:
# [1] = test system: Menschliche Leukämiezellen und Lungenkarzinomzellen; assay: Inhibition of proliferation (growth kinetics by cell count) of tumour cells in culture; format: cell-based; details: for zytostatische Wirkung (Hemmung der Proliferation in vitro): general statement
# [2] = test system: weißen Blutzellen des Menschen; assay: Accumulation in cells on incubation, detected by fluorescence optics; format: cell-based; details: incubation with 10^-7 -10-5-molar concentration
# Excerpt: Die selektive Wirkung auf Tumore wird auch dadurch unterstützt, daß sich Ergot-Alkaloide wie Lisurid in einzelnen Organen selektiv anreichern und damit hier zu besonders hoher Wirksamkeit gelangen.
# [3] = Long-term oral treatment of rats (104 - 107 weeks), mortality; format: in vivo, Han-Wistar-Ratten; details: 0,02, 0,2 and 1,0 mg/kg oral
# [4] = test system: Lungenademokarzinomen und Mäuseleukämien; assay: Long-term oral treatment of mice (104 - 107 weeks), mortality and tumour incidence; format: in vivo, NMRI-Mäuse; details: 0.02, 0,06 and 0,2 mg/kg oral
# Excerpt: Des weiteren wurden NMRI-Mäuse mit 0.02.
# [5] = test system: adulte und embryonale Lungenfibroblasten; assay: Inhibition of proliferation of normal cells under the same culture conditions; format: cell-based; details: high doses such as 100 ug/ml; same test conditions
# Excerpt: Tag durch frisches Medium mit Lisurid ersetzt wurde, wobei sich die Menge des Ergot-Alkaloids auf die freie Base Lisurid bezieht. Die Wachstumskinetik, d.h. die Vermehrungsrate pro Zeiteinheit, wurde durch Bestimmung der Zellzahl nach 48, 96 und 144 Stunden ermittelt und mit der von Zellen verglichen, die in Lisurid-freiem Medium kultiviert wurden.
smiles,measurement,setting,value
"CCN(CC)C(=O)N[C@H]1C=C2c3cccc4[nH]c(Br)c(c34)C[C@H]2N(C)C1 [Bromergurid, 1,1-Diethyl-3-(2-brom-6-methyl-9.10-didehydro-8a-ergolinyl)-harnstoff]",zytostatische Wirkung (Hemmung der Proliferation in vitro),[1],zytostatisch wirken
"CCN(CC)C(=O)N[C@H]1C=C2c3cccc4[nH]cc(c34)C[C@H]2N(C)C1 [Lisurid, 1,1-Diethyl-3-(6-methyl-9.10-didelhydro-8a-ergolinyl)-harnstoff]",Anreicherung der Lisuridfluoreszenz,[2],massive Anreicherung
same,Sterblichkeit (überwiegend tumorbedingt),[3],dosisabhängig reduzieren
same,Auftreten von Lungenademokarzinomen und Mäuseleukämien,[4],deutlichen Hemmung
same,Mortalität,[4],teilweise zur Verminderung der Mortalität
same,Hemmung von Normalzellen,[5],wenn überhaupt nur minimal gehemmt
same,zytotoxische Wirkung,[1]; 100 ug/ml,zytotoxische Wirkung
"CCCN1CC(NC(=O)N(CC)CC)CC2c3cccc4[nH]cc(c34)CC21 (stereo not drawn) [Protegurid, 1,1-Diethyl-3-(6-u-propyl-8α-ergolinyl)-harnstoff]",zytostatische Wirkung (Hemmung der Proliferation in vitro),[1],zytostatisch wirken
"CCN(CC)C(=O)N[C@H]1C[C@@H]2c3cccc4[nH]cc(c34)C[C@H]2N(C)C1 [Tergurid, 1,1-Diethyl-3-(6-methyl-8a-erfolinyl)-harnstoff]",zytostatische Wirkung (Hemmung der Proliferation in vitro),[1],zytostatisch wirken
